Assay results: ChEMBL document CHEMBL3885881, “DrugMatrix”

Organism: Rattus norvegicus
Assay: DrugMatrix - Regimen: Daily Repeat
Format: toxicity, organism-based, Sprague-Dawley
Design: regimen Daily Repeat, gender Male, age 6-8 weeks
Conditions: in vivo, po, route oral GAVAGE, […]; for ABSOLUTE BASOPHIL / ABSOLUTE EOSINOPHIL / ABSOLUTE LYMPHOCYTE / ABSOLUTE MONOCYTE / ABSOLUTE SEGMENTED NEUTROPHIL / BASOPHIL / EOSINOPHIL / ERYTHROCYTE COUNT / HEMATOCRIT / HEMOGLOBIN / LEUKOCYTE COUNT / LYMPHOCYTE / MEAN CORPUSCULAR HEMOGLOBIN / MEAN CORPUSCULAR HEMOGLOBIN CONCENTRATION / MEAN CORPUSCULAR VOLUME / MONOCYTE / NEUTROPHIL / NUCLEATED RED BLOOD CELLS / PLATELET COUNT: tissue Blood
[1] = 0 mg/kg, 72 h, dose level Control, time 3 day
[2] = 0 mg/kg, 72 h, tissue Plasma, dose level Control, time 3 day
[3] = 0 mg/kg, 120 h, dose level Control, time 5 day
[4] = 0 mg/kg, 120 h, tissue Plasma, dose level Control, time 5 day
[5] = 0.3 mg/kg, 72 h, dose level Low, time 3 day
[6] = 0.3 mg/kg, 72 h, tissue Plasma, dose level Low, time 3 day

Structure (SMILES): C[C@]12CC[C@@H]3c4ccc(O)cc4CC[C@H]3[C@@H]1CC[C@@H]2O [ESTRADIOL]
- ABSOLUTE BASOPHIL [1]: 0 CELLS/uL
- ABSOLUTE EOSINOPHIL [1]: 41.83 CELLS/uL
- ABSOLUTE LYMPHOCYTE [1]: 8545.5 CELLS/uL
- ABSOLUTE MONOCYTE [1]: 240 CELLS/uL
- ABSOLUTE SEGMENTED NEUTROPHIL [1]: 906 CELLS/uL
- BASOPHIL [1]: 0%
- EOSINOPHIL [1]: 0.33%
- ERYTHROCYTE COUNT [1]: 5.6 x10E6/uL
- HEMATOCRIT [1]: 35.4%
- HEMOGLOBIN [1]: 13.42 G/DL
- LEUKOCYTE COUNT [1]: 9.73 x10E3/uL
- LYMPHOCYTE [1]: 87.83%
- MEAN CORPUSCULAR HEMOGLOBIN [1]: 23.98 pg
- MEAN CORPUSCULAR HEMOGLOBIN CONCENTRATION [1]: 37.92 G/DL
- MEAN CORPUSCULAR VOLUME [1]: 63.3 fL
- MONOCYTE [1]: 2.5%
- NEUTROPHIL [1]: 9.33%
- NUCLEATED RED BLOOD CELLS [1]: 0 /100WBC
- PLATELET COUNT [1]: 1032 x10E3/uL
- ALANINE AMINOTRANSFERASE [2]: 72.83 u/L
- ALBUMIN [2]: 4 G/DL
- ALKALINE PHOSPHATASE [2]: 322.83 u/L
- ASPARTATE AMINOTRANSFERASE [2]: 102.67 u/L
- BLOOD UREA NITROGEN [2]: 12 mg/dL
- CARBON DIOXIDE [2]: 34.33 mmol/L
- CHLORIDE [2]: 97.67 MEQ/L
- CHOLESTEROL [2]: 82.5 mg/dL
- CREATINE PHOSPHOKINASE [2]: 410.33 u/L
- CREATININE [2]: 0.18 mg/dL
- GLUCOSE [2]: 164.5 mg/dL
- LACTATE DEHYDROGENASE [2]: 119.5 u/L
- LIPASE [2]: 11.83 u/L
- PHOSPHORUS [2]: 9.52 mg/dL
- POTASSIUM [2]: 5.56 MEQ/L
- SODIUM [2]: 142.48 MEQ/L
- TOTAL BILIRUBIN [2]: 0.18 mg/dL
- TOTAL PROTEIN [2]: 5.77 G/DL
- URIC ACID [2]: 0.48 mg/dL
- ABSOLUTE BASOPHIL [3]: 0 CELLS/uL
- ABSOLUTE EOSINOPHIL [3]: 0 CELLS/uL
- ABSOLUTE LYMPHOCYTE [3]: 9065 CELLS/uL
- ABSOLUTE MONOCYTE [3]: 341.33 CELLS/uL
- ABSOLUTE SEGMENTED NEUTROPHIL [3]: 527 CELLS/uL
- BASOPHIL [3]: 0%
- EOSINOPHIL [3]: 0%
- ERYTHROCYTE COUNT [3]: 5.25 x10E6/uL
- HEMATOCRIT [3]: 34.08%
- HEMOGLOBIN [3]: 13.5 G/DL
- LEUKOCYTE COUNT [3]: 9.93 x10E3/uL
- LYMPHOCYTE [3]: 91.17%
- MEAN CORPUSCULAR HEMOGLOBIN [3]: 25.7 pg
- MEAN CORPUSCULAR HEMOGLOBIN CONCENTRATION [3]: 39.62 G/DL
- MEAN CORPUSCULAR VOLUME [3]: 64.93 fL
- MONOCYTE [3]: 3.33%
- NEUTROPHIL [3]: 5.5%
- NUCLEATED RED BLOOD CELLS [3]: 0 /100WBC
- PLATELET COUNT [3]: 1077.5 x10E3/uL
- ALANINE AMINOTRANSFERASE [4]: 57.83 u/L
- ALKALINE PHOSPHATASE [4]: 319.17 u/L
- ASPARTATE AMINOTRANSFERASE [4]: 83.33 u/L
- BLOOD UREA NITROGEN [4]: 13.67 mg/dL
- CARBON DIOXIDE [4]: 30.83 mmol/L
- CHLORIDE [4]: 98.33 MEQ/L
- CHOLESTEROL [4]: 64.83 mg/dL
- CREATINE PHOSPHOKINASE [4]: 263.67 u/L
- CREATININE [4]: 0.2 mg/dL
- GLUCOSE [4]: 182.83 mg/dL
- LACTATE DEHYDROGENASE [4]: 124 u/L
- LIPASE [4]: 10.5 u/L
- PHOSPHORUS [4]: 10 mg/dL
- POTASSIUM [4]: 5.78 MEQ/L
- SODIUM [4]: 142.48 MEQ/L
- TOTAL BILIRUBIN [4]: 0.2 mg/dL
- TOTAL PROTEIN [4]: 6 G/DL
- URIC ACID [4]: 0.7 mg/dL
- ABSOLUTE BASOPHIL [5]: 0 CELLS/uL
- ABSOLUTE EOSINOPHIL [5]: 0 CELLS/uL
- ABSOLUTE LYMPHOCYTE [5]: 8342 CELLS/uL
- ABSOLUTE MONOCYTE [5]: 154.33 CELLS/uL
- ABSOLUTE SEGMENTED NEUTROPHIL [5]: 637 CELLS/uL
- BASOPHIL [5]: 0%
- EOSINOPHIL [5]: 0%
- ERYTHROCYTE COUNT [5]: 5.44 x10E6/uL
- HEMATOCRIT [5]: 33.83%
- HEMOGLOBIN [5]: 13.07 G/DL
- LEUKOCYTE COUNT [5]: 9.13 x10E3/uL
- LYMPHOCYTE [5]: 91.67%
- MEAN CORPUSCULAR HEMOGLOBIN [5]: 24.07 pg
- MEAN CORPUSCULAR HEMOGLOBIN CONCENTRATION [5]: 38.63 G/DL
- MEAN CORPUSCULAR VOLUME [5]: 62.23 fL
- MONOCYTE [5]: 1.67%
- NEUTROPHIL [5]: 6.67%
- NUCLEATED RED BLOOD CELLS [5]: 0 /100WBC
- PLATELET COUNT [5]: 824 x10E3/uL
- ALANINE AMINOTRANSFERASE [6]: 57.33 u/L
- ALKALINE PHOSPHATASE [6]: 430 u/L
- ASPARTATE AMINOTRANSFERASE [6]: 82.67 u/L
- BLOOD UREA NITROGEN [6]: 13.67 mg/dL
- CARBON DIOXIDE [6]: 34 mmol/L
- CHLORIDE [6]: 97.67 MEQ/L
- CHOLESTEROL [6]: 68 mg/dL
- CREATINE PHOSPHOKINASE [6]: 290.33 u/L
- CREATININE [6]: 0.16 mg/dL
- GLUCOSE [6]: 175 mg/dL
- LACTATE DEHYDROGENASE [6]: 124 u/L
- LIPASE [6]: 11 u/L
- PHOSPHORUS [6]: 9.93 mg/dL
- POTASSIUM [6]: 5.76 MEQ/L
- SODIUM [6]: 142.13 MEQ/L
- TOTAL BILIRUBIN [6]: 0.23 mg/dL
- URIC ACID [6]: 0.37 mg/dL
